The values that follow are results of earlier work, collected in PMC8969080 (Dalton transactions (Cambridge, England : 2003), 2022).

Like-named read-outs stand apart in the source and are kept apart here.

The conditions of this data set: 1:1 Metal/Ligand, 50 μM.

On to `O=C(O)CN(CCN(CC(=O)O)CC(=O)O)CCN(CC(=O)O)CC(=O)O` [DTPA, diethylenetriaminepentaacetic acid], for which the “Calculated pM (−log[M]free; M = Cu^2+)” value runs as follows: (pH 6.6) 9.7; (pH 7.4) 10.7.
